# Source: patent publication US9512117B2 (priority 2010, dated 2016)
# Columns and labels:
# [1] = tested on: Phytophthora infestans; assay type: in vivo; details: young tomato plants, protective spray, 100 ppm active ingredient, evaluation 7 days after inoculation; 0% = control, 100% = no infection
# [2] = tested on: Plasmopara viticola; assay: Plasmopara test (grapevine) / protective; assay type: in vivo; details: young grapevine plants, protective spray, 10 ppm active ingredient, evaluation 6 days after inoculation; 0% = control, 100% = no infection
# Procedure: Plasmopara Test (Grapevine)/Protective
# • Solvent: 24.5 parts by weight of acetone • 24.5 parts by weight of dimethylacetamide • Emulsifier: 1 part by weight of alkylaryl polyglycol ether
# To produce a suitable active ingredient formulation, 1 part by weight of active ingredient is mixed with the stated amounts of solvent and emulsifier, and the concentrate is diluted with water to the desired concentration.
# To test for protective efficacy, young plants are sprayed with the active ingredient formulation at the stated application rate. After the spray coating has dried on, the plants are inoculated with an aqueous spore suspension of Plasmopara viticola and then remain in an incubation cabin at approx. 20° C. and 100% relative air humidity for 1 day. Subsequently, the plants are placed in a greenhouse at approx. 21° C. and approx. 90% air humidity for 4 days. The plants are then moistened and placed in an incubation cabin for 1 day.
# Evaluation follows 6 days after the inoculation. 0% means an efficacy which corresponds to that of the control, whereas an efficacy of 100% means that no infection is observed.
# In this test, the following inventive compounds show, at an active ingredient concentration of 10 ppm, an efficacy of 70% or more: […]
# [3] = logP by HPLC on reversed-phase columns (C 18), EEC directive 79/831 Annex V.A8; assay type: physicochemical; details: LC-MS; for Log P [a] / chromatographic logP: acidic range, pH 2.7, 0.1% aqueous formic acid and acetonitrile; for Log P [b]: neutral range, pH 7.8, 0.001 molar aqueous ammonium hydrogencarbonate and acetonitrile; for chromatographic logP: reversed-phase HPLC column (C18), read-out: Log P [a]
# Procedure: The logP values were measured according to EEC directive 79/831 Annex V.A8 by HPLC (High Performance Liquid Chromatography) on reversed-phase columns (C 18), using the methods below:
# ^[a] The LC-MS determination in the acidic range is effected at pH 2.7 with 0.1% aqueous formic acid and acetonitrile (contains 0.1% formic acid) as eluents; linear gradient from 10% acetonitrile to 95% acetonitrile.
# ^[b] The LC-MS determination in the neutral range is effected at pH 7.8 using 0.001 molar aqueous ammonium hydrogencarbonate solution and acetonitrile as eluents; linear gradient from 10% acetonitrile to 95% acetonitrile.
# The calibration is effected with unbranched alkan-2-ones (having 3 to 16 carbon atoms) with known logP values (logP values determined on the basis of the retention times by linear interpolation between two successive alkanones).
smiles,measurement,setting,value
C#CCOc1ccccc1C1CC(c2csc(C3CCN(C(=O)Cn4nc(C(F)(F)F)cc4C)CC3)n2)=NO1 (centres unmarked) [Ex. 13],Eff. %,[1],89%
same,Eff. %,[2],100%
same,Log P [a],[3],3.47[a];
same,Log P [b],[3],3.37[b]
Cc1cc(C(F)(F)F)nn1CC(=O)N1CCC(c2nc(C3=NOC(c4cccc(F)c4OC(=O)C4CC4)C3)cs2)CC1 (racemic) [Ex. 54],Eff. %,[1],94%
same,Eff. %,[2],91%
same,Log P [a],[3],3.62[a];
same,Log P [b],[3],3.5[b]
C=CCOc1ccccc1C1CC(c2csc(C3CCN(C(=O)Cn4nc(C(F)(F)F)cc4C)CC3)n2)=NO1 (centres unmarked) [Ex. 30],Eff. %,[1],97%
same,Eff. %,[2],100%
same,Log P [a],[3],3.86[a];
same,Log P [b],[3],3.73[b]
COCCOc1ccccc1C1CC(c2csc(C3CCN(C(=O)Cn4nc(C(F)(F)F)cc4C)CC3)n2)=NO1 (racemic) [Ex. 55],Eff. %,[1],92%
same,Eff. %,[2],93%
same,Log P [a],[3],3.27[a];
same,Log P [b],[3],3.25[b]
Cc1cc(C(F)(F)F)nn1CC(=O)N1CCC(c2nc(C3=NOC(c4c(F)cccc4C=O)C3)cs2)CC1 (racemic) [Ex. 53],Eff. %,[1],98%
same,Eff. %,[2],100%
same,Log P [a],[3],3.03[a];
same,Log P [b],[3],2.95[b]
C#CCOc1cccc(F)c1C1(C)CC(c2csc(C3CCN(C(=O)Cn4nc(C)cc4C(F)F)CC3)n2)=NO1 (racemic) [Ex. 37],Eff. %,[1],94%
same,Eff. %,[2],96%
same,Log P [a],[3],3.11[a];
same,Log P [b],[3],3.12[b];
C=CCOc1cccc(F)c1C1CC(c2csc(C3CCN(C(=O)Cn4nc(C(F)(F)F)cc4C)CC3)n2)=NO1 (racemic) [Ex. 51],Eff. %,[1],85%
same,Eff. %,[2],100%
same,Log P [a],[3],3.7[a];
same,Log P [b],[3],3.61[b]
C=CCOc1cccc(F)c1C1CC(c2csc(C3CCN(C(=O)Nc4cc(C)ccc4C)CC3)n2)=NO1 (centres unmarked) [Ex. 25],Eff. %,[1],100%
same,Eff. %,[2],100%
same,Log P [a],[3],3.64[a];
same,Log P [b],[3],3.62[b]
C=CCOc1cccc(Cl)c1C1CC(c2csc(C3CCN(C(=O)Cn4nc(C(F)(F)F)cc4C)CC3)n2)=NO1 (racemic) [Ex. 50],Eff. %,[1],70%
same,Eff. %,[2],100%
same,Log P [a],[3],3.94[a];
same,Log P [b],[3],3.83[b]
Cc1cc(C(F)(F)F)nn1CC(=O)N1CCC(c2nc(C3=NOC(c4cccc(OC(=O)C5CC5)c4)C3)cs2)CC1 (racemic) [Ex. 40],Eff. %,[1],100%
same,Eff. %,[2],85%
same,Log P [a],[3],3.53[a];
same,Log P [b],[3],3.47[b]
Cc1cc(C(F)(F)F)nn1CC(=O)N1CCC(c2nc(C3=NOC(c4c(Cl)cccc4OC(=O)C4CC4)C3)cs2)CC1 (racemic) [Ex. 48],Eff. %,[1],70%
same,Eff. %,[2],95%
same,Log P [a],[3],3.73[a];
same,Log P [b],[3],3.64[b]
C#CCOc1cccc(F)c1C1CC(c2csc(C3CCN(C(=O)Cn4nc(C(F)(F)F)cc4C)CC3)n2)=NO1 (centres unmarked) [Ex. 12],Eff. %,[1],75%
same,Eff. %,[2],100%
same,Log P [a],[3],3.35[a];
same,Log P [b],[3],3.27[b]
C#CCOc1cccc(Cl)c1C1CC(c2csc(C3CCN(C(=O)Cn4nc(C(F)(F)F)cc4C)CC3)n2)=NO1 (centres unmarked) [Ex. 11],Eff. %,[1],85%
same,Eff. %,[2],100%
same,Log P [a],[3],3.62[a];
same,Log P [b],[3],3.53[b]
"CS(=O)(=O)Nc1ccccc1C1CC(c2csc(C3CCN(C(=O)Cc4cc(C(F)F)ccc4C(F)F)CC3)n2)=NO1 (centres unmarked) [Ex. 4, N-(2-{3-[2-(1-{[2,5-Bis(difluoromethyl)phenyl]acetyl}piperidin-4-yl)-1,3-thiazol-4-yl]-4,5-dihydro-1,2-oxazol-5-yl}phenyl)methanesulphonamide]",Eff. %,[1],95%
same,Eff. %,[2],95%
same,chromatographic logP,[3],2.81
C=CCOc1ccccc1C1CC(c2csc(C3CCN(C(=O)Cn4nc(C)cc4C(F)F)CC3)n2)=NO1 (centres unmarked) [Ex. 18],Eff. %,[1],100%
same,Eff. %,[2],95%
same,Log P [a],[3],3.42[a];
same,Log P [b],[3],3.33[b]
"Cc1cc(C(F)(F)F)nn1CC(=O)N1CCC(c2nc(C3=NOC(c4ccccc4C=O)C3)cs2)CC1 (centres unmarked) [Ex. 7, 2-{3-[2-(1-{[5-Methyl-3-(trifluoromethyl)-1H-pyrazol-1-yl]acetyl}piperidin-4-yl)-1,3-thiazol-4-yl]-4,5-dihydro-1,2-oxazol-5-yl}benzaldehyde]",Eff. %,[1],100%
same,Eff. %,[2],100%
same,chromatographic logP,[3],3.12
